Results reported in ChEMBL document CHEMBL3046133, “Susceptibility of field populations of Spodoptera litura (Fabricius) (Lepidoptera: Noctuidae) in China to chlorantraniliprole and the activities of detoxification enzymes” (2012).

Columns and labels:
Type in all cases: functional
[1] = system: Spodoptera litura; test: Resistance factor, ratio of LC50 for third to fifth-instar larval stage of Spodoptera litura field strain HX09 to LC50 for larval stage of Spodoptera litura laboratory strain XW-Sus
[2] = system: Spodoptera litura; test: Resistance factor, ratio of LC50 for third to fifth-instar larval stage of Spodoptera litura field strain SH10 to LC50 for larval stage of Spodoptera litura laboratory strain XW-Sus
[3] = system: Spodoptera litura; test: Insecticidal activity against third to fifth-instar larval stage of Spodoptera litura field strain HF08 assessed as mortality after 72 hr by diet incorporation bioassay
[4] = system: Spodoptera litura; test: Resistance factor, ratio of LC50 for third to fifth-instar larval stage of Spodoptera litura field strain NJ10 to LC50 for larval stage of Spodoptera litura laboratory strain XW-Sus
[5] = system: Spodoptera litura; test: Insecticidal activity against third to fifth-instar larval stage of Spodoptera litura field strain HX09 assessed as mortality after 72 hr by diet incorporation bioassay
[6] = system: Spodoptera litura; test: Resistance factor, ratio of LC50 for third to fifth-instar larval stage of Spodoptera litura field strain NN10 to LC50 for larval stage of Spodoptera litura laboratory strain XW-Sus
[7] = system: Spodoptera litura; test: Insecticidal activity against second to fifth-instar larval stage of Spodoptera litura field strain DG10 assessed as mortality after 72 hr by diet incorporation bioassay
[8] = system: Spodoptera litura; test: Insecticidal activity against third to fifth-instar larval stage of Spodoptera litura field strain NJ10 assessed as mortality after 72 hr by diet incorporation bioassay
[9] = system: Spodoptera litura; test: Insecticidal activity against larval stage of Spodoptera litura laboratory strain XW-Sus assessed as mortality after 72 hr by diet incorporation bioassay
[10] = system: Spodoptera litura; test: Resistance factor, ratio of LC50 for second to fifth-instar larval stage of Spodoptera litura field strain HZ10 to LC50 for larval stage of Spodoptera litura laboratory strain XW-Sus
[11] = system: Spodoptera litura; test: Insecticidal activity against third to fifth-instar larval stage of Spodoptera litura field strain NN10 assessed as mortality after 72 hr by diet incorporation bioassay
[12] = system: Spodoptera litura; test: Resistance factor, ratio of LC50 for third to fifth-instar larval stage of Spodoptera litura field strain NJ09 to LC50 for larval stage of Spodoptera litura laboratory strain XW-Sus
[13] = system: Spodoptera litura; test: Resistance factor, ratio of LC50 for third to fifth-instar larval stage of Spodoptera litura field strain HH09 to LC50 for larval stage of Spodoptera litura laboratory strain XW-Sus
[14] = system: Spodoptera litura; test: Resistance factor, ratio of LC50 for second to fifth-instar larval stage of Spodoptera litura field strain SZ10 to LC50 for larval stage of Spodoptera litura laboratory strain XW-Sus
[15] = system: Spodoptera litura; test: Insecticidal activity against third to fifth-instar larval stage of Spodoptera litura field strain HH09 assessed as mortality after 72 hr by diet incorporation bioassay
[16] = system: Spodoptera litura; test: Resistance factor, ratio of LC50 for second to fifth-instar larval stage of Spodoptera litura field strain DG10 to LC50 for larval stage of Spodoptera litura laboratory strain XW-Sus
[17] = system: Spodoptera litura; test: Insecticidal activity against third to fifth-instar larval stage of Spodoptera litura field strain HF10 assessed as mortality after 72 hr by diet incorporation bioassay
[18] = system: Spodoptera litura; test: Resistance factor, ratio of LC50 for third to fifth-instar larval stage of Spodoptera litura field strain HF08 to LC50 for larval stage of Spodoptera litura laboratory strain XW-Sus
[19] = system: Spodoptera litura; test: Insecticidal activity against third to fifth-instar larval stage of Spodoptera litura field strain SH10 assessed as mortality after 72 hr by diet incorporation bioassay
[20] = system: Spodoptera litura; test: Insecticidal activity against third to fifth-instar larval stage of Spodoptera litura field strain NJ09 assessed as mortality after 72 hr by diet incorporation bioassay
[21] = system: Spodoptera litura; test: Resistance factor, ratio of LC50 for second to fifth-instar larval stage of Spodoptera litura field strain ZZ10 to LC50 for larval stage of Spodoptera litura laboratory strain XW-Sus
[22] = system: Spodoptera litura; test: Resistance factor, ratio of LC50 for third to fifth-instar larval stage of Spodoptera litura field strain HF10 to LC50 for larval stage of Spodoptera litura laboratory strain XW-Sus
[23] = system: Spodoptera litura; test: Insecticidal activity against second to fifth-instar larval stage of Spodoptera litura field strain ZZ10 assessed as mortality after 72 hr by diet incorporation bioassay
[24] = system: Spodoptera litura; test: Insecticidal activity against second to fifth-instar larval stage of Spodoptera litura field strain HZ10 assessed as mortality after 72 hr by diet incorporation bioassay
[25] = system: Spodoptera litura; test: Insecticidal activity against second to fifth-instar larval stage of Spodoptera litura field strain SZ10 assessed as mortality after 72 hr by diet incorporation bioassay

CNC(=O)c1cc(Cl)cc(C)c1NC(=O)c1cc(Br)nn1-c1ncccc1Cl [CHLORANTRANILIPROLE]
RatioLC50 [1]: 23.8 | RatioLC50 [2]: 11.2 | LC50 [3]: 71.58 ugAi/L | LC90 [3]: 386.57 ugAi/L | RatioLC50 [4]: 9 | LC50 [5]: 100.3 ugAi/L | LC90 [5]: 431.76 ugAi/L | RatioLC50 [6]: 7.8 | LC50 [7]: 98.81 ugAi/L | LC90 [7]: 358.16 ugAi/L | LC50 [8]: 37.78 ugAi/L | LC90 [8]: 156.29 ugAi/L | LC50 [9]: 4.2 ugAi/L | LC90 [9]: 17.82 ugAi/L | RatioLC50 [10]: 19.2 | LC50 [11]: 32.85 ugAi/L | LC90 [11]: 81.75 ugAi/L | RatioLC50 [12]: 6.8 | RatioLC50 [13]: 9.4 | RatioLC50 [14]: 24.4 | LC50 [15]: 39.54 ugAi/L | LC90 [15]: 132.55 ugAi/L | RatioLC50 [16]: 23.3 | LC50 [17]: 75.51 ugAi/L | LC90 [17]: 262.61 ugAi/L | RatioLC50 [18]: 16.9 | LC50 [19]: 47.17 ugAi/L | LC90 [19]: 133.09 ugAi/L | LC50 [20]: 28.41 ugAi/L | LC90 [20]: 108.24 ugAi/L | RatioLC50 [21]: 18.9 | RatioLC50 [22]: 17.9 | LC50 [23]: 78.89 ugAi/L | LC90 [23]: 269.74 ugAi/L | LC50 [24]: 80.41 ugAi/L | LC90 [24]: 296.76 ugAi/L | LC50 [25]: 102.48 ugAi/L | LC90 [25]: 354.52 ugAi/L
